In patent US11104660B2, “PDE4D inhibitors” (TETRA DISCOVERY PARTNERS, INC., priority 2019, dated 2021):
Like-named read-outs stand apart in the source and are kept apart here.

What was measured:
[1] = Plasma free fraction of Compound A (spiked -10 min plasma samples); assay type: in vitro ADME, cynomolgus non-human primates (Macaca fascicularis); conditions: cynomolgus monkey, read-out: fp (%) Plasma free fraction
Experimental: (§1) A dynamic 90 (Subject 1) or 120 (Subject 2) minute PET scan acquisition was initiated at the start of Compound A injection, administered over 3 minutes via an infusion pump targeting an injected activity of 5 mCi. Relative to time of Compound A injection, arterial blood samples were collected in K2EDTA at −10, 0.75, 1.5, 2.25, 3, 4, 5, 10, 15, 30, 45, 60, 90 and 120 min. For each sample, an aliquot (200 uL) was gamma counted for radioactivity concentration determination, then processed to plasma. For −10, 5, 15, 30, 60, 90, 120 min plasma samples, radio HPLC was performed for determination of parent fraction of Compound A, and −10 min samples spiked with Compound A were used for stability analysis and determination of plasma free fraction. Aliquots (100 uL) of plasma samples collected at −10, 5, 15, 30, 60, 90, 120 min were frozen for subsequent determination of drug concentration levels.

[2] = system: PDE4D; assay: PET imaging of 11C-labeled Compound A in non-human primate brain (VT, uptake); assay type: in vivo, cynomolgus non-human primates (Macaca fascicularis); conditions: for VT (volume of distribution): 90 min
Experimental: The regional distribution and pharmacokinetics of ^11C-labeled compounds as described herein were evaluated on non-human primates via PET imaging.
Two male non-naïve cynomolgus non-human primates (Macaca fascicularis) (“Subject 1” and “Subject 2”) were utilized in this study (7.0 and 5.5 kg). Subjects had previously undergone surgery for placement of arterial access ports for blood collection from the iliac artery. Each subject underwent a brain MR in a Philips 1.5T Intera scanner using a 3D T1 FFE sequence for subsequent registration with PET and application of a cynomolgus brain region of interest atlas for determination of regional time-activity curves. PET scans were conducted in each subject under baseline condition (i.e., Compound A, only) and 15 minutes after a 10 minute infusion of Compound B at 3 mg/kg (i.e. blocking condition). Compound B is a known PDE4D ligand, alternatively referred to as BPN14770.
PET scans were conducted with a Siemens Focus 220 microPET scanner. Subjects were anesthetized with ketamine 10 mg/kg IM approximately 45 minutes prior to Compound A injection. Atropine sulfate 0.05 mg/kg IM was administered approximately 35 minutes prior to Compound A injection. Subjects were intubated and maintained on isoflurane (2-2.5%) and oxygen (2 L/min). Indwelling catheters were placed in the saphenous veins for drug infusion, tracer injection and fluids (LRS 10 mL/kg/hr IV). Subjects were transported to the PET imaging bed, positioned, and monitored for body temperature, heart rate, expired CO2, respiration rate, and pulse O2.
as §1
At the conclusion of PET scan acquisition, an x-ray CT scan by an 8 slice NeuroLogica CereTom OTOscan of each Subject was collected of the head at 120 kVp, 4 mAs, slice thickness 0.625 mm and processed using filtered back projection. The CT scan was used for co-registration to PET for attenuation and scatter correction of the reconstructed PET scan. Listmode PET data were binned into 6×0.5 min, 3×1 min, 2×2 min and 22 ×5 min frames. Binned sinogram data were reconstructed by filtered backprojection.
Reconstructed PET images were analyzed using PMOD software. PET scans were transformed into MR template space via rigid PET-to-MR and affine+nonlinear MR-to-template registrations. Time-activity curves were generated from regions of interest (ROIs) defined on the MR template including the anterior cingulate, cerebellum, dorsolateral prefrontal cortex, entorhinal cortex, occipital cortex, striatum and thalamus. Peak uptake in the brain was between about 3.2% and 5.6% of the injected dose.
Volume of distribution (VT) (mL/cm^3) of Compound A was estimated with the 2-tissue compartment (2TC) model and Logan graphical analysis (LGA, t*=30), for baseline and blocking scans, using 90 min of data. VT at baseline and blocking in ROIs were used to compute occupancy of Compound B via the occupancy (Lassen) plot. Time stability of VT estimated from 2TC and LGA models were assessed for both animals from 90 min or 120 minutes of data for baseline and blocking scans.

[2H]C([2H])(c1cn[nH]c1)c1ccc(O[11CH3])c(-c2cccc([N+](=O)[O-])c2)n1 [Compound A]
fraction unbound ([1]; Subject 1, baseline): 0.059
fraction unbound ([1]; Subject 1, blocking (Compound B 3 mg/kg)): 0.059
fraction unbound ([1]; Subject 2, baseline): 0.067
fraction unbound ([1]; Subject 2, blocking (Compound B 3 mg/kg)): 0.047
VT (volume of distribution) ([2]; Anterior Cingulate, Subject 1, 2TC, baseline): 15.8 mL/cm^3
VT (volume of distribution) ([2]; Anterior Cingulate, Subject 1, 2TC, blocking (Compound B 3 mg/kg)): 8.8 mL/cm^3
VT (volume of distribution) ([2]; Anterior Cingulate, Subject 1, LGA, baseline): 13.8 mL/cm^3
VT (volume of distribution) ([2]; Anterior Cingulate, Subject 1, LGA, blocking (Compound B 3 mg/kg)): 8.9 mL/cm^3
VT (volume of distribution) ([2]; Anterior Cingulate, Subject 2, 2TC, baseline): 13.7 mL/cm^3
VT (volume of distribution) ([2]; Anterior Cingulate, Subject 2, 2TC, blocking (Compound B 3 mg/kg)): 10.6 mL/cm^3
VT (volume of distribution) ([2]; Anterior Cingulate, Subject 2, LGA, baseline): 14.6 mL/cm^3
VT (volume of distribution) ([2]; Anterior Cingulate, Subject 2, LGA, blocking (Compound B 3 mg/kg)): 10.4 mL/cm^3
VT (volume of distribution) ([2]; Cerebellum, Subject 1, 2TC, baseline): 11.5 mL/cm^3
VT (volume of distribution) ([2]; Cerebellum, Subject 1, 2TC, blocking (Compound B 3 mg/kg)): 7.6 mL/cm^3
VT (volume of distribution) ([2]; Cerebellum, Subject 1, LGA, baseline): 10.2 mL/cm^3
VT (volume of distribution) ([2]; Cerebellum, Subject 1, LGA, blocking (Compound B 3 mg/kg)): 7.7 mL/cm^3
VT (volume of distribution) ([2]; Cerebellum, Subject 2, 2TC, baseline): 8.6 mL/cm^3
VT (volume of distribution) ([2]; Cerebellum, Subject 2, 2TC, blocking (Compound B 3 mg/kg)): 9.6 mL/cm^3
VT (volume of distribution) ([2]; Cerebellum, Subject 2, LGA, baseline): 9.2 mL/cm^3
VT (volume of distribution) ([2]; Cerebellum, Subject 2, LGA, blocking (Compound B 3 mg/kg)): 9.7 mL/cm^3
VT (volume of distribution) ([2]; Dorsolateral Frontal Cortex, Subject 1, 2TC, baseline): 26.2 mL/cm^3
VT (volume of distribution) ([2]; Dorsolateral Frontal Cortex, Subject 1, 2TC, blocking (Compound B 3 mg/kg)): 10.2 mL/cm^3
VT (volume of distribution) ([2]; Dorsolateral Frontal Cortex, Subject 1, LGA, baseline): 22.9 mL/cm^3
VT (volume of distribution) ([2]; Dorsolateral Frontal Cortex, Subject 1, LGA, blocking (Compound B 3 mg/kg)): 10.1 mL/cm^3
VT (volume of distribution) ([2]; Dorsolateral Frontal Cortex, Subject 2, 2TC, baseline): 15.2 mL/cm^3
VT (volume of distribution) ([2]; Dorsolateral Frontal Cortex, Subject 2, 2TC, blocking (Compound B 3 mg/kg)): 12.3 mL/cm^3
VT (volume of distribution) ([2]; Dorsolateral Frontal Cortex, Subject 2, LGA, baseline): 15.5 mL/cm^3
VT (volume of distribution) ([2]; Dorsolateral Frontal Cortex, Subject 2, LGA, blocking (Compound B 3 mg/kg)): 10.6 mL/cm^3
VT (volume of distribution) ([2]; Enthorinal Cortex, Subject 1, 2TC, baseline): 14.6 mL/cm^3
VT (volume of distribution) ([2]; Enthorinal Cortex, Subject 1, 2TC, blocking (Compound B 3 mg/kg)): 8.1 mL/cm^3
VT (volume of distribution) ([2]; Enthorinal Cortex, Subject 1, LGA, baseline): 11.7 mL/cm^3
VT (volume of distribution) ([2]; Enthorinal Cortex, Subject 1, LGA, blocking (Compound B 3 mg/kg)): 7.4 mL/cm^3
VT (volume of distribution) ([2]; Enthorinal Cortex, Subject 2, 2TC, baseline): 10.8 mL/cm^3
VT (volume of distribution) ([2]; Enthorinal Cortex, Subject 2, 2TC, blocking (Compound B 3 mg/kg)): 10.1 mL/cm^3
VT (volume of distribution) ([2]; Enthorinal Cortex, Subject 2, LGA, baseline): 10.5 mL/cm^3
VT (volume of distribution) ([2]; Enthorinal Cortex, Subject 2, LGA, blocking (Compound B 3 mg/kg)): 7.8 mL/cm^3
VT (volume of distribution) ([2]; Hippocampus, Subject 1, 2TC, baseline): 30.3 mL/cm^3
VT (volume of distribution) ([2]; Hippocampus, Subject 1, 2TC, blocking (Compound B 3 mg/kg)): 7.4 mL/cm^3
VT (volume of distribution) ([2]; Hippocampus, Subject 1, LGA, baseline): 19.4 mL/cm^3
VT (volume of distribution) ([2]; Hippocampus, Subject 1, LGA, blocking (Compound B 3 mg/kg)): 7.5 mL/cm^3
VT (volume of distribution) ([2]; Hippocampus, Subject 2, 2TC, baseline): 19.8 mL/cm^3
VT (volume of distribution) ([2]; Hippocampus, Subject 2, 2TC, blocking (Compound B 3 mg/kg)): 11.1 mL/cm^3
VT (volume of distribution) ([2]; Hippocampus, Subject 2, LGA, baseline): 17.4 mL/cm^3
VT (volume of distribution) ([2]; Hippocampus, Subject 2, LGA, blocking (Compound B 3 mg/kg)): 11.0 mL/cm^3
VT (volume of distribution) ([2]; Occipital Cortex, Subject 1, 2TC, baseline): 17.8 mL/cm^3
VT (volume of distribution) ([2]; Occipital Cortex, Subject 1, 2TC, blocking (Compound B 3 mg/kg)): 8.4 mL/cm^3
VT (volume of distribution) ([2]; Occipital Cortex, Subject 1, LGA, baseline): 15.1 mL/cm^3
VT (volume of distribution) ([2]; Occipital Cortex, Subject 1, LGA, blocking (Compound B 3 mg/kg)): 8.0 mL/cm^3
VT (volume of distribution) ([2]; Occipital Cortex, Subject 2, 2TC, baseline): 12.9 mL/cm^3
VT (volume of distribution) ([2]; Occipital Cortex, Subject 2, 2TC, blocking (Compound B 3 mg/kg)): 10.6 mL/cm^3
VT (volume of distribution) ([2]; Occipital Cortex, Subject 2, LGA, baseline): 13.1 mL/cm^3
VT (volume of distribution) ([2]; Occipital Cortex, Subject 2, LGA, blocking (Compound B 3 mg/kg)): 10.0 mL/cm^3
Brain entry ([2]; PET image analysis): readily entered the brain
Regional uptake ([2]; PET image analysis): consistent with the known distribution of Compound B
VT (volume of distribution) ([2]; Striatum, Subject 1, 2TC, baseline): 14.9 mL/cm^3
VT (volume of distribution) ([2]; Striatum, Subject 1, 2TC, blocking (Compound B 3 mg/kg)): 9.0 mL/cm^3
VT (volume of distribution) ([2]; Striatum, Subject 1, LGA, baseline): 13.9 mL/cm^3
VT (volume of distribution) ([2]; Striatum, Subject 1, LGA, blocking (Compound B 3 mg/kg)): 9.2 mL/cm^3
VT (volume of distribution) ([2]; Striatum, Subject 2, 2TC, baseline): 13.2 mL/cm^3
VT (volume of distribution) ([2]; Striatum, Subject 2, 2TC, blocking (Compound B 3 mg/kg)): 11.5 mL/cm^3
VT (volume of distribution) ([2]; Striatum, Subject 2, LGA, baseline): 13.4 mL/cm^3
VT (volume of distribution) ([2]; Striatum, Subject 2, LGA, blocking (Compound B 3 mg/kg)): 11.2 mL/cm^3
VT (volume of distribution) ([2]; Thalamus, Subject 1, 2TC, baseline): 17.6 mL/cm^3
VT (volume of distribution) ([2]; Thalamus, Subject 1, 2TC, blocking (Compound B 3 mg/kg)): 8.8 mL/cm^3
VT (volume of distribution) ([2]; Thalamus, Subject 1, LGA, baseline): 15.7 mL/cm^3
VT (volume of distribution) ([2]; Thalamus, Subject 1, LGA, blocking (Compound B 3 mg/kg)): 8.9 mL/cm^3
VT (volume of distribution) ([2]; Thalamus, Subject 2, 2TC, baseline): 11.6 mL/cm^3
VT (volume of distribution) ([2]; Thalamus, Subject 2, 2TC, blocking (Compound B 3 mg/kg)): 9.9 mL/cm^3
VT (volume of distribution) ([2]; Thalamus, Subject 2, LGA, baseline): 12.1 mL/cm^3
VT (volume of distribution) ([2]; Thalamus, Subject 2, LGA, blocking (Compound B 3 mg/kg)): 9.8 mL/cm^3
Change of Compound A in regions of high uptake on blockage of PDE4D ([2]; high dose of Compound B): substantial reduction
